Results taken from US9850293B2, “Targeting trastuzumab-resistant HER2+ breast cancer with a HER3-targeting nanoparticle” (priority 2014, dated 2017).
“Also recorded” adds a separate entry of the source.

Assays:
[1] = tested on: HER3 on 4T1 mouse mammary tumor cells; assay: Binding of HerPBK10 to mouse mammary tumor cells
Source text: (A) is an amino acid sequence alignment of domains I-II (heregulin-binding domain) of human (SEQ ID NO:13) and mouse HER3 (SEQ ID NO:14). (B) compares relative HER3 levels on different cell lines, detected by ELISA (without permeabilization) using an anti-HER3 antibody that cross-reacts with both human and mouse HER3 (1B2E; Cell Signaling Technologies). […] N=3. *, p<0.05 compared to HerPBK10 alone.
Mouse 4T1 cells, obtained from a BALB/c mouse mammary tumor, are triple-negative and have been used as a syngeneic TNBC model in BALB/c mice. […] The receptor-specific binding of HerPBK10 to mouse HER3 reflects the high level of amino acid sequence identity between mouse and human HER3: 91% identity for the entire protein and 94% in the heregulin-binding region (extracellular domains I and II) (FIG. 32-A). […] Importantly, human BT-549 cells, which are also derived from a TNBC, display elevated HER3 on the cell surface (FIG. 32-B) and provide an additional TNBC cell line to target.

MDA-MB-231 (HER2−) = assay: Targeted toxicity, cell survival by MTT assay; assay type: cell-based, human; settings: 0.5 μM with respect to Dox; HerPBK10 0.1 μM; day 3
Experimental: (§1) FIG. 7 illustrates targeted toxicity. […] Cell titer was determined by metabolic (i.e. MTT) assay. FIG. 7 upper panel illustrates the effect of HerDox on MDA-MB-231 (HER2−) and MDA-MB-435 (HER2+) cell survival. Relative surviving cell numbers are represented as a % of corresponding untreated cells. […] Relative survival (as % of untreated cells) is shown for Day 3 of treatment.
(§2) N=3. […] Bar, about 4 μm. […] (E) compares HerDox and Dox on off-target tissue. […] Green fluorescence in nuclei indicates apoptosis (positive TUNEL stain).
(§3) By three days, HerDox reduced HER2+ cell numbers by over 75% whereas HER2− cell survival was unaffected (FIG. 7). […] These findings emphasize the importance of targeting by showing that the untargeted drug affects nontarget (i.e. HER2−) cells. […] To test receptor targeting, the inventors used free heregulin ligand (Her or eHRG) as a competitive inhibitor. […] As a final in vitro challenge, the inventors tested whether HerDox induces toxicity specifically to HER2+ cells in a mixed culture of HER2+ and HER2− breast cancer cells. To do this, the inventors produced a HER2− cell line tagged with green fluorescent protein (GFP) for cell identification in the mixed culture (FIG. 9-A). […] Altogether, these findings indicate that HerDox has the capacity to preferentially target toxicity to HER2+ cells. […] In serum-containing media, no such loss from HerDox is detectable. […] Co-migration of HerPBK10 bands further verified that the conjugates remained intact in the cell media.

HER2+ cells = assay: ELISA of HerPBK10 binding to HER2+ cells with competitive inhibitors
Source text: (§4) Un, no HerPBK10. […] HerPBK10 binding to HER3 is not inhibited by patient serum.
(§5) Binding was also not inhibited by a HER4 peptide or betacellulin (which blocks HER4) (FIG. 26-B).

[2] = tested on: HER3 on parental cell lines (BT474 and SKBR3); assay: Tz pre-treatment: cell surface HER3 and HerPBK10 binding; assay type: cell-based, human; settings: 0.5 mg/mL Tz for 24 hours
Experimental: N=3. […] N=3. […] N=3. […] N=3. […] N=3. […] N=3.
(§6) N=3. *, p<0.05 compared to parental. […] N=3. *, p<0.05 compared to parental.
The parental and resistant cell lines were pretreated with Tz for 4 or 24 hours before HerDox treatment.
(§7) Parental lines were exposed to Tz for 24 hours and then measured cell surface HER3 levels in comparison to non-treated parental cells. […] As a means of evaluating whether the nanoparticles described herein are capable of recognizing HER3 on human tissue, breast tumor tissue was obtained from a surgical specimen of a HER2+ patient and examined whether HerPBK10 could bind this tissue via HER3.

HER2+ MDA-MB-435 cells = assay: Cell uptake (fluorescence confocal microscopy); assay type: cell-based, human; settings: after cell surface clustering
Experimental: (§8) (A) compares biodistribution and intracellular trafficking of HerPBK10 and Tz.
The uptake in HER2+ MDA-MB-435 cells were also evaluated.

[3] = tested on: human cardiosphere-derived cells (CDCs); assay: Human CDC viability; settings: escalating concentrations, 48 hour exposure
Experimental: Control groups received saline or HerPBK10 at equivalent concentration to HerMn. Treatments began at ˜200 mm^3 average tumor volume. Tumor volumes were measured before (day 1), during (day 3), and after (days 8, 15, and 22) injections of reagents. N=8-10 tumors/group. *p<0.05 (one-way ANOVA). […] N=3 per conc, from 3 separate experiments.
To assess translatability, the viability of human cardiosphere-derived cells (CDCs) in the presence of HerGa and/or HerMn was examined.

MDA-MB-435 cells = assay: HerPBK10 binding to cells in human serum (ELISA); settings: 1.2 μg/well, sera of 5 HER2+ patients and age-matched controls
Experimental: FIG. 16 illustrates HerPBK10 binding to MDA-MB-435 cells in human serum from HER2+ or HER2− breast cancer patients. Cells were treated with HerPBK10 (1.2 μg/well) in media containing human serum from each of 5 HER2+ breast cancer patients or age matched HER2− controls, both obtained pre-chemotherapy treatment. Cells were processed for ELISA using an antibody directed at HerPBK10. Control (C) wells receiving HerPBK10 in media containing bovine serum without or with 100× molar excess competitive ligand inhibitor (+Her) are indicated by open bars. Patient sera were provided by the WCRI tissue bank at Cedars-Sinai Medical Center. N=3 wells per treatment.
To determine whether HerPBK10 competes with circulating ligand that may be present in serum, the inventors tested HerPBK10 binding to HER2+ breast cancer cells in human serum obtained from HER2+ patients. The Women's Cancer Research Institute at Cedars-Sinai occasionally acquires limited quantities of patient serum, of which sera from HER2+ patients comprises an even smaller minority. […] Here, the inventors replaced the bovine serum in the routine culturing media with the human serum obtained from the acquired patient samples to assess whether the human serum, especially from HER2+ patients, inhibits cell binding. […]

[4] = Neutralizing antibody formation after repeat dosing; assay type: in vivo, mouse; settings: repeat dosing at therapeutic and 10-fold higher levels, immunocompetent mice
Source text: Therefore, receptor binding is not inhibited by patient sera.

MDA-MB-435 (HER2+) = assay: Targeted toxicity, cell survival by MTT assay; assay type: cell-based, human; settings: Dox 0.5 μM; HerPBK10 0.1 μM; day 3
Experimental: as §1
FIG. 8 illustrates receptor specificity. MDA-MB-435 (HER2+) cells were incubated with free ligand (eHRG) at 10× molar excess of HerDox for one hour at 4° C. Media was aspirated to remove free eHRG and fresh media containing HerDox (0.5 μM) was added to cells. Cell survival was measured by MTT assay and represented as a % of relative untreated cell numbers.
as §2, §3

[5] = tested on: HER2+ tumors (MDA-MB-435); assay: In vivo tumor toxicity (tumor growth); parameters: species or system mouse; settings: 0.004 mg/kg with respect to Dox, daily tail vein injections for 7 days
[6] = tested on: primary tumor cells from a surgical specimen of a HER2+ patient; assay: Binding to primary human tumor cells; settings: elevated HER3, very low HER2
Experimental: as §6, §7

HER2+ tumor = assay: Biodistribution of labeled HerPBK10, Tz and BSA; assay type: in vivo, mouse; settings: tail vein, four hours after injection
Experimental: as §8
Fluorescently-labeled HerPBK10 was prepared to assess its bio-distribution and cell uptake in comparison to labeled Tz. Equivalent doses of each reagent were injected into the tail veins of HER2+ tumor bearing mice. Tissues were harvested at four hours after injection for imaging. Both reagents were compared to a labeled non-targeted protein, BSA.

[7] = molecular target: T1, HER3 (human ErbB3 extracellular domain) (Homo sapiens, UniProt P21860); assay: ELISA of HerPBK10 binding to immobilized HER3
T1 construct: immobilized peptide containing the extracellular domain of human HER3; purchased Prospec
Source text: as §4, §5

HerPBK10: receptor binding domain of heregulin fused to adenovirus penton base protein modified by a C-terminal decalysine
binding to 4T1 cells with human HER3 peptide [1]: competitively inhibited by human HER3 peptide
recognition of HER3 on 4T1 cells [1]: is recognized by HerPBK10
effect on HER2− cell survival (MDA-MB-231 (HER2−)): had no effect on either cell line
binding to HER2+ cells with pertuzumab (Pz) (HER2+ cells): did not prevent HerPBK10 binding
binding to HER2+ cells after pre-adsorption with free HER3 peptide (HER2+ cells; 1× and 10× molar ratio): also inhibited HerPBK10 binding
binding to HER2+ cells with HER4 peptide or betacellulin (HER2+ cells; betacellulin 10 μg/mL): not inhibited
HerPBK10 binding to Tz pre-treated parental cells [2]: augments HerPBK10 binding; also recorded: proportionately increased
time to significant endocytosis (HER2+ MDA-MB-435 cells): ≤ 45 min
effect on CDC viability [3]: no detectable effect on CDC viability
cell binding in serum from HER2+ patients, HER2− patients or bovine serum (MDA-MB-435 cells): no significant differences; also recorded: did not prevent HerPBK10 binding
neutralizing antibody formation against the protein [4]: did not yield detectable neutralizing antibody formation
effect on HER2+ cell survival (MDA-MB-435 (HER2+)): had no effect on either cell line; also recorded: does not induce cell death
effect on tumor growth [5]: had no effect
binding to disaggregated patient tumor cells [6]: exhibiting greater binding than Tz; also recorded: showing greater binding than Tz
delivery to the heart, spleen, and muscle (HER2+ tumor): nearly absent delivery
lung delivery (HER2+ tumor): no lung delivery
tumor accumulation (HER2+ tumor): equivalent levels of tumor accumulation
binding to immobilized HER3 after pre-adsorption with free HER3 peptide [7]: inhibited by pre-adsorption of HerPBK10 with free HER3 peptide
binding to immobilized HER3 peptide [7]: binds to an immobilized peptide containing the extracellular domain of human HER3
